Test results from patent publication US20060057071A1, “Paramagnetic complexes with pendant crown compounds showing improved targeting-specificity as MRI contrast agents” (priority 2004, published 2006).
“And” between values parts separate entries of the source, which are not always exact repeats. Identical values can stand only once.

What was measured:
[1] = 1H NMRD profiles (water proton relaxivity); type: physicochemical; settings: 25° C., pH 6.9, fits of NMRD profile and 17O NMR
Text: (§1) Measuring the relaxation rates of an abundant nuclear species as a function of the magnetic field over a wide range is called relaxometry. A relaxometry profile is a plot of the nuclear magnetic relaxation rate, usually 1/T1, as a function of the Larmor frequency or the magnetic field. This profile is also called a Nuclear Magnetic Resonance Dispersion (NMRD) profile. Compared with the NMRD profile, the prominent advantage of the ^17O NMR technique is that it allows the accurate determination of the water exchange rate 1/TM. This is a consequence of the oxygen nucleus being closer to the paramagnetic centre when bound in the inner-sphere, wherein the outer-sphere contributions to the relaxation rates are negligibly small. With the help of NMRD profiles, ^17O NMR measurements, and the Soloman-Bloemnergen-Morgan theory, several important parameters, such as TM, TR, TV, Δ^2 and rH, can be measured.
Water proton nuclear magnetic resonance dispersion NMRD profile is used to record the longitudinal water proton relaxation rates as a function of magnetic fields. The method is, in principle, sensitive to all of the parameters that influence relaxivity. The ^1H NMRD profiles were measured over a continuum of magnetic field strength from 0.00024 to 0.24 T (corresponding to 0.01-10 MHz proton Larmor frequency, 1 T≈41.7 MHz) on a Spinmaster FFC (Stelar, Mede (PV)), which is a fast field-cycling NMR relaxometer installed at the LIMA Laboratory (Bioindustry Park, Ivrea (TO), Italy). The relaxometer worked under complete control with an absolute uncertainty in 1/T1 of ±2%. The NMRD profiles were measured using 1-2 mM solutions of the complexes.

[2] = Variable-temperature 17O NMR transverse relaxation rate; type: physicochemical
Text: as §1
The variable-temperature ^17O NMR measurements were recorded on a JEOL EX-90 (2.1 T) spectrometer that was equipped with a 5 mm probe, by using a D2O external lock. The experimental settings were: spectral width of 10000 Hz, pulse width of 7 μs, acquisition time of 10 ms, 1000 scans, and no sample spinning. Solutions containing 2.6% of ^17O isotope were used. The observed transverse relaxation rates (R2obs^O) were calculated from the signal width at half height.

kidney cortex = assay: In vivo MRI, renal intensity enhancement; design: species or system rat
Protocol: (§2) To study the MRI contrast and biodistribution behavior of gadolinium complexes […] pendant crown ethers, experiments were performed using male Sprague-Dawley (SD) rats that weighted 150-180 g, and were housed at the Wuhan Institute of Physical and Mathematics of the Chinese Academy of Sciences (Wuhan, Hubei Province, China). All procedures conformed to the institutional guidelines for animal welfare. The rat was injected via the femoral vein with 1 mL saline solution of GdL1 in concentrations of 0.1, 0.033, and 0.02 mM/kg, which are the standard dosage, one third and one fifth of the standard dosage used in clinic currently. MR imaging was performed on a 4.7 T Bruker BIO-SPEC-47/30 MRI scanner with a custom spiral surface coil. The animal was scanned in the prone position in the MRI experiment. […] The total duration of the dynamic scanning lasted up to 400 min after the administration, with an image every 4 min. A water tube was placed in the field of view as a phantom reference. The intensity enhancement (IE) of the region of interest (RI) at time point t is expressed by IE=100% (RI(t)-RI(0))/RI(0) where RI(t) corresponds to the normalized signal intensity as measured at time point, t and RI(0) is the normalized signal intensity precontrast.

liver parenchyma = assay: In vivo MRI, hepatic intensity enhancement; design: species or system rat; settings: for maximal hepatic IE: rat
Protocol: as §2

MIHA cells [3] = assay: In vitro cytotoxicity, MTT / XTT cell proliferation assay; type: cell-based
Protocol: To further investigate the potential ability of GdL1 as an NMRI contrast agent, its cytotoxicity was measured by MTT assay. The toxicity of GdL1 was determined from the dose-dependence of surviving cells after exposure to this Gd^3+ complex at different time intervals. For comparison, the cytotoxicities of Gd-DOTA and Gd-DO3A were measured under the same conditions.
To evaluate the toxicity of prepared Gd^3+ complexes, a calorimetric assay (XTT-based) for the non-radioactive quantification of cell proliferation was applied. In the cell proliferating process, the added tetrazolium salt XTT was cleaved to a formazan dye by metabolically active cells, and the quantification of cell growth was achieved by the variation of the absorbance at 492 nm. […] Different concentrations of drugs were adjusted by performing serial dilution. The incubation period of the cell culture ranged from 1, 2, 8, and 24 hrs. XTT dye at a concentration of 5 mg/mL (sigma, St. Louis, Mo.) was added, and the plates were incubated for 12 h in a moist chamber at 37° C. The optical density was determined by eluting the dye with dimethyl sulfoxide, and the absorbance was measured at 570 nm. At least three independent experiments were performed.

MIHA cells [4] = assay: AO/EB staining, laser scanning confocal microscopy; type: cell-based; settings: 10 μM, 1 h, 2 h, 8 h, 24 h incubation, 37° C.
Protocol: MIHA cells in the absence (control) and presence of Gd-DOTA (10 μM), Gd-DO3A (10 μM), and GdL1 (10 μM) incubated at 37° C. and 5% CO2, 95% air in a humidified incubator for 1 h, 2 h, 8 h, and 24 h, respectively.
Based on cell morphology and cell membrane integrity, normal, necrotic, and apoptotic cells can be distinguished using laser confocal microscopy. FIG. 22 gives the cell morphology in the absence and presence of Gd-DOTA (10 μM), Gd-DO3A (10 μM), and GdL1 (10 μM) at various time intervals after the incubation. In the absence or presence of the Gd^3+ complexes, the nuclei of the living cells were stained as bright blue spots in the nucleus.

[5] = 1H NMRD profiles (water proton relaxivity); type: physicochemical; settings: 20 MHz, 25° C., pH 6.9

O=C([O-])CN1CCN(CCN2CCOCCOCCOCCOCC2)CCN(CC(=O)[O-])CCN(CC(=O)[O-])CC1.[Gd+3] [GdL1, Gd^3+ Complex of L1]
D [1]: 2.24E-5 cm^2s^−1
TR [1]: 146 ps
TV [1]: 13 ps
a [1]: 4.0 Å
q [1]: 2
r [1]: 2.98 Å
Δ^2 [1]: 8e+19 s⁻¹
temperature at which R2p attains its maximum ([2]; 2.12 T, range 273-340 K): ~270 K
water exchange rate kex^298 ([2]; 25° C.): 1.82e+07 s⁻¹
TM ([2]; 25° C., pH 6.9, derived from VT 17O NMR spectroscopy): 55 ns
exchange lifetime TM of inner-sphere coordinated water ([2]; 298 K (25° C.), 2.12 T): 55 ns
resident lifetime in renal tissue (kidney cortex; 0.1 mmol/kg): > 3 h
maximal renal intensity enhancement (IE) (kidney cortex; 0.1 mmol/kg (standard dosage), rat, first few minutes after administration): ~200%
renal IE preserved 250 minutes after injection (kidney cortex; 0.1 mmol/kg, 250 min): 40%
kidney contrast enhancement two hours after the injection (kidney cortex; 0.1 mmol/kg, two hours): faint contrast enhancement could still be observed
maximal renal IE (kidney cortex; 0.033 (0.03) mmol/kg, one third of standard dose, rat): 123% and 120%
time for which strong renal intensity enhancement is maintained (kidney cortex; summary statement): more than four hours
time after administration of maximal hepatic IE (liver parenchyma; 0.02 mmol/kg): 60 min
hepatic IE maintained after 3 h (liver parenchyma; 0.02 mmol/kg, 3 h): over 40%
hepatic IE a few minutes after the injection (liver parenchyma; 0.03 mmol/kg): about 50%
hepatic IE persisting after 320 min (liver parenchyma; 0.03 mmol/kg, 320 min): 50%
time for which high hepatic IE stays on a plateau (liver parenchyma; 0.033 mmol/kg): more than 4 h
hepatic IE level on plateau (liver parenchyma; 0.033 mmol/kg, more than 4 h after administration): > 60%
resident lifetime in hepatic tissues (liver parenchyma; 0.1 mmol/kg): > 4 h
time after administration at which obvious enhancement of the liver was monitored (liver parenchyma; 0.1 mmol/kg): 30 min
time after administration of maximal hepatic IE (liver parenchyma; 0.1 mmol/kg): 90 to 100 min
time for which strong/high hepatic IE was maintained (liver parenchyma; 0.1 mmol/kg): more than 4 h
maximal hepatic IE (liver parenchyma; 0.1 mmol/kg (standard dosage)): 105%
time after administration of maximal hepatic IE (liver parenchyma; 0.033 (0.03) mmol/kg): 60 to 100 min
maximal hepatic IE (liver parenchyma; 0.033 (0.03) mmol/kg): 90%
time for which strong hepatic intensity enhancement is maintained (liver parenchyma; summary statement): more than four hours
viability of the cells (MIHA cells [3]; 1×10^−5 mol L^−1 to 1×10^−2 mol L^−1, 1 h, 2 h, 8 h, 24 h incubation): above 90%
effect on cell viability / cytotoxicity (MIHA cells [3]; up to 1×10^−2 M, up to 24 h incubation): not affected obviously
cell morphology (apoptotic or necrotic cells) (MIHA cells [4]): no obvious apoptotic or necrotic cells were found
proton relaxivity r1 (r1p) [5]: 9.65 mM⁻¹ s⁻¹
